Source: patent US10407383B2, “Cyclopentene and cyclopentadiene compounds for controlling invertebrate pests” (BASF SE, priority 2014, dated 2019)

Columns and labels:
Type in all cases: in vivo
[1] = system: green peach aphid (Myzus persicae); experiment: Green peach aphid (Myzus persicae), systemic, 96-well plates with liquid artificial diet under membrane; settings: 72 h, adult aphids on treated diet, 3 days, read-out: mortality in comparison with untreated controls
Description: B.1 Green Peach Aphid (Myzus persicae)
For evaluating control of green peach aphid (Myzus persicae) through systemic means the test unit consisted of 96-well-microtiter plates containing liquid artificial diet under an artificial membrane.
The compounds were formulated using a solution containing 75% v/v water and 25% v/v DMSO. Different concentrations of formulated compounds were pipetted into the aphid diet, using a custom built pipetter, at two replications.
After application, 5-8 adult aphids were placed on the artificial membrane inside the microtiter plate wells. The aphids were then allowed to suck on the treated aphid diet and incubated at about 23±1° C. and about 50±5% relative humidity for 3 days. Aphid mortality and fecundity was then visually assessed.

[2] = system: vetch aphid (Megoura viciae); experiment: Vetch aphid (Megoura viciae), contact or systemic, broad bean leaf disks in 24-well plates; settings: foliar, 120 h, adult aphids on sprayed leaf disks, 5 days, read-out: mortality in comparison with untreated controls
Procedure: B.2 Vetch Aphid (Megoura viciae)
For evaluating control of vetch aphid (Megoura viciae) through contact or systemic means the test unit consisted of 24-well-microtiter plates containing broad bean leaf disks.
The compounds were formulated using a solution containing 75% v/v water and 25% v/v DMSO. Different concentrations of formulated compounds were sprayed onto the leaf disks at 2.5 μl, using a custom built micro atomizer, at two replications.
After application, the leaf disks were air-dried and 5-8 adult aphids placed on the leaf disks inside the microtiter plate wells. The aphids were then allowed to suck on the treated leaf disks and incubated at about 23±1° C. and about 50±5% relative humidity for 5 days. Aphid mortality and fecundity was then visually assessed.

[3] = system: tobacco budworm (Heliothis virescens); experiment: Tobacco budworm (Heliothis virescens), insect diet with eggs in 96-well plates; settings: 120 h, egg and larval mortality, 5 days, read-out: mortality in comparison with untreated controls
Procedure: B.3 Tobacco Budworm (Heliothis virescens)
For evaluating control of tobacco budworm (Heliothis virescens) the test unit consisted of 96-well-microtiter plates containing an insect diet and 15-25 H. virescens eggs.
The compounds were formulated using a solution containing 75% v/v water and 25% v/v DMSO. Different concentrations of formulated compounds were sprayed onto the insect diet at 10 μl, using a custom built micro atomizer, at two replications.
(§1) After application, microtiter plates were incubated at about 28±1° C. and about 80±5% relative humidity for 5 days. Egg and larval mortality was then visually assessed.

[4] = system: boll weevil (Anthonomus grandis); experiment: Boll weevil (Anthonomus grandis), insect diet with eggs in 24-well plates; settings: 120 h, egg and larval mortality, 5 days, read-out: mortality in comparison with untreated controls
Procedure: B.4 Boll Weevil (Anthonomus grandis)
For evaluating control of boll weevil (Anthonomus grandis) the test unit consisted of 24-well-microtiter plates containing an insect diet and 20-30 A. grandis eggs.
The compounds were formulated using a solution containing 75% v/v water and 25% v/v DMSO. Different concentrations of formulated compounds were sprayed onto the insect diet at 20 μl, using a custom built micro atomizer, at two replications.
After application, microtiter plates were incubated at about 23±1° C. and about 50±5% relative humidity for 5 days. Egg and larval mortality was then visually assessed.

[5] = system: Mediterranean fruitfly (Ceratitis capitata); experiment: Mediterranean fruitfly (Ceratitis capitata), insect diet with eggs in microtiter plates; settings: 120 h, egg and larval mortality, 5 days, read-out: mortality in comparison with untreated controls
Procedure: B.5 Mediterranean Fruitfly (Ceratitis capitata)
For evaluating control of Mediterranean fruitfly (Ceratitis capitata) the test unit consisted of microtiter plates containing an insect diet and 50-80 C. capitata eggs.
The compounds were formulated using a solution containing 75% v/v water and 25% v/v DMSO. Different concentrations of formulated compounds were sprayed onto the insect diet at 5 μl, using a custom built micro atomizer, at two replications.
as §1

[6] = system: Diamond Back Moth (Plutella Xylostella); experiment: Diamond back moth (Plutella xylostella), cabbage leaf dip, 3rd instar larvae; settings: foliar, 72 hours after treatment, read-out: mortality in comparison with untreated controls
Procedure: B.6 Diamond Back Moth (Plutella Xylostella)
The active compound was dissolved at the desired concentration in a mixture of 1:1 (vol:vol) distilled water:aceteone. Surfactant (Kinetic HV) was added at a rate of 0.01% (vol/vol). The test solution was prepared at the day of use.
Leaves of cabbage were dipped in test solution and air-dried. Treated leaves were placed in petri dishes lined with moist filter paper and inoculated with ten 3rd instar larvae. Mortality was recorded 72 hours after treatment. Feeding damages were also recorded using a scale of 0-100%.

[7] = system: Orchid Thrips (Dichromothrips Corbetti); experiment: Orchid thrips (Dichromothrips corbetti), floral-immersion technique; settings: adult thrips, 72 hours after treatment, read-out: mortality in comparison with untreated controls
Procedure: B.7 Orchid Thrips (Dichromothrips Corbetti)
Dichromothrips corbetti adults used for bioassay were obtained from a colony maintained continuously under laboratory conditions. For testing purposes, the test compound was diluted in a 1:1 mixture of acetone:water (vol:vol), plus Kinetic HV at a rate of 0.01% v/v.
Thrips potency of each compound was evaluated by using a floral-immersion technique. All petals of individual, intact orchid flowers were dipped into treatment solution and allowed to dry in Petri dishes. Treated petals were placed into individual re-sealable plastic along with about 20 adult thrips. All test arenas were held under continuous light and a temperature of about 28° C. for duration of the assay. After 3 days, the numbers of live thrips were counted on each petal. The percent mortality was recorded 72 hours after treatment.

[8] = system: Rice Green Leafhopper (Nephotettix virescens); experiment: Rice green leafhopper (Nephotettix virescens), sprayed potted rice seedlings; settings: adults, after 72 hours, read-out: mortality in comparison with untreated controls
Procedure: B.8 Rice Green Leafhopper (Nephotettix virescens)
Rice seedlings were cleaned and washed 24 hours before spraying. The active compounds were formulated in 1:1 acetone:water (vol:vol), and 0.01% vol/vol surfactant (Kinetic HV) was added. Potted rice seedlings were sprayed with 5-6 ml test solution, air dried, covered with Mylar cages and inoculated with 10 adults. Treated rice plants were kept at about 28-29° C. and relative humidity of about 50-60%. Percent mortality was recorded after 72 hours.

[9] = system: Red Spider Mite (Tetranychus kanzawai); experiment: Red spider mite (Tetranychus kanzawai), sprayed potted cowpea beans; settings: 72 hours after treatment, read-out: mortality in comparison with untreated controls
Procedure: B.9 Red Spider Mite (Tetranychus kanzawai)
The active compound was dissolved at the desired concentration in a mixture of 1:1 (vol:vol) distilled water:acetone. Surfactant (Kinetic HV) was added at a rate of 0.01% (vol/vol). The test solution was prepared at the day of use.
Potted cowpea beans of 4-5 days of age were cleaned with tap water and sprayed with 1-2 ml of the test solution using air driven hand atomizer. The treated plants were allowed to air dry and afterwards inoculated with 30 or more mites by clipping a cassava leaf section from rearing population. Treated plants were placed inside a holding room at about 25-27° C. and about 50-60% relative humidity. Percent mortality was assessed 72 hours after treatment.

O=C(NC1CS(=O)(=O)C1)c1ccc(C2=CC(c3cc(Cl)cc(Cl)c3)(C(F)(F)F)CC2)cc1Cl (stereo not shown) [Compound 1-11, 2-Chloro-4-[3-(3,5-dichlorophenyl)-3-(trifluoromethyl)cyclopenten-1-yl]-N-(1,1-dioxothietan-3-yl)benzamide]
≥ 75%: mortality at 2500 ppm [1] | mortality at 2500 ppm [2] | mortality at 2500 ppm [3] | mortality at 2500 ppm [4] | mortality at 2500 ppm [5] | mortality at 500 ppm [6] | mortality at 500 ppm [7] | mortality at 500 ppm [8] | mortality at 500 ppm [9]

O=C(O)c1ccc(C2=CC(c3cc(Cl)cc(Cl)c3)(C(F)(F)F)CC2)cc1Cl (stereo not shown) [Compound 1-12, 2-Chloro-4-[3-(3,5-dichlorophenyl)-3-(trifluoromethyl)cyclopenten-1-yl]benzoic acid]
≥ 75%: mortality at 2500 ppm [4]

COC(=O)c1ccc(C2=CC(c3cc(Cl)cc(Cl)c3)(C(F)(F)F)CC2)cc1Cl (stereo not shown) [Compound 1-13, Methyl 2-chloro-4-[3-(3,5-dichlorophenyl)-3-(trifluoromethyl)cyclopenten-1-yl]-benzoate]
≥ 75%: mortality at 2500 ppm [4] | mortality at 500 ppm [6]

O=C(NC1CS(=O)(=O)C1)c1ccc(C2=CC(c3cc(Cl)cc(Cl)c3)(C(F)(F)F)C=C2)cc1Cl (stereo not shown) [Compound 2-12, 2-Chloro-4-[3-(3,5-dichlorophenyl)-3-(trifluoromethyl)cyclopenta-1,4-dien-1-yl]-N-(1,1-dioxothietan-3-yl)benzamide]
≥ 75%: mortality at 2500 ppm [1] | mortality at 2500 ppm [2] | mortality at 2500 ppm [3] | mortality at 2500 ppm [4] | mortality at 2500 ppm [5] | mortality at 500 ppm [6] | mortality at 500 ppm [7] | mortality at 500 ppm [8] | mortality at 500 ppm [9]

O=C(NC1CS(=O)(=O)C1)c1ccc(C2=CCC(c3cc(Cl)cc(Cl)c3)(C(F)(F)F)C2)cc1Cl (stereo not shown) [Compound 3-9, 2-Chloro-4-[4-(3,5-dichlorophenyl)-4-(trifluoromethyl)cyclopenten-1-yl]-N-(1,1-dioxothietan-3-yl)benzamide]
≥ 75%: mortality at 2500 ppm [1] | mortality at 2500 ppm [2] | mortality at 2500 ppm [3] | mortality at 2500 ppm [4] | mortality at 2500 ppm [5] | mortality at 500 ppm [6] | mortality at 500 ppm [7] | mortality at 500 ppm [8] | mortality at 500 ppm [9]

O=C(O)c1ccc(C2=CCC(c3cc(Cl)cc(Cl)c3)(C(F)(F)F)C2)cc1Cl (stereo not shown) [Compound 3-11, 2-Chloro-4-[4-(3,5-dichlorophenyl)-4-(trifluoromethyl)cyclopenten-1-yl]benzoic acid]
≥ 75%: mortality at 2500 ppm [4]
